Like-named read-outs stand apart in the source and are kept apart here. Starred links: 1 amine or outer side, 2 acyl side, 3 side chain; linkers in the order of their positions; H or OH if unused. Non-standard residues stand in square brackets, D forms with d. Residues, ends and D or L forms follow the SMILES beside them. *: point of attachment. Tyr(OtBu) = CC(C)(C)Oc1ccc(C[C@H](N[*:1])C(=O)[*:2])cc1; Glu(OtBu) = CC(C)(C)OC(=O)CC[C@H](N[*:1])C(=O)[*:2]; Fmoc = O=C(OCC1c2ccccc2-c2ccccc21)*; Decanoyl = CCCCCCCCCC(=O)*; Cbz = O=C(OCc1ccccc1)*; Boc = CC(C)(C)OC(=O)*; Bz = O=C(c1ccccc1)*; OtBu = CC(C)(C)O*; tBu = CC(C)(C)*
T1: FGF14 (Homo sapiens, UniProt Q92915)
T1 sequence (Q92915 64-252 isoform Q92915-2): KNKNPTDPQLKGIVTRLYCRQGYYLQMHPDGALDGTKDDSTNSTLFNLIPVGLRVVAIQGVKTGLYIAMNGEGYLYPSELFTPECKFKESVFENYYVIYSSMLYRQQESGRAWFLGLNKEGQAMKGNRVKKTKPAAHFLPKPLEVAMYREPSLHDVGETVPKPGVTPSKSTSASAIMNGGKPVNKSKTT

T2: fibroblast growth factor 14 (FGF14), aa 64–252 (UniProt Q92915)
T2 sequence: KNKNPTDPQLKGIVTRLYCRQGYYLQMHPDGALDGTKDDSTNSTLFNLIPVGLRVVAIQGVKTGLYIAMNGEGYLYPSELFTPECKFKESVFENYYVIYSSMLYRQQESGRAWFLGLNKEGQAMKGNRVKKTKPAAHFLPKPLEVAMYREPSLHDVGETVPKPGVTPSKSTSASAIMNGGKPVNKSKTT


Legend:
[1] = tested on: MSNs of the NAc; design: method as in PMID 29359916; conditions: previously reported; cited from earlier work
[2] = biological target: T3, Nav1.6 channel (Homo sapiens, UniProt Q9UQD0); assay: Whole-cell patch-clamp electrophysiology in HEK-Nav1.6 cells; format: cell-based; conditions: 20 µM; for Tau of Fast Inactivation: at −10 mV, DMSO 1.17 ± 0.09; for Long Term Inactivation, depolarization cycle 4 (INa/INa,Cycle 1) / Long Term Inactivation, depolarization cycle 3 (INa/INa,Cycle 1) / Long Term Inactivation, depolarization cycle 2 (INa/INa,Cycle 1): fraction of channels available; for Long Term Inactivation, depolarization cycle 4 (INa/INa,Cycle 1): DMSO 0.85 ± 0.04; for Long Term Inactivation, depolarization cycle 3 (INa/INa,Cycle 1): DMSO 0.86 ± 0.03; for Long Term Inactivation, depolarization cycle 2 (INa/INa,Cycle 1): DMSO 0.89 ± 0.03; for V1/2 of Steady-state Inactivation: DMSO –58.58 ± 1.90
T3 construct: expressed in transfected cells
Procedure: As such, in an effort to further investigate their seemingly inverse activities, 12 and 19 were selected for functional evaluation as modulators of Nav1.6. To do so, HEK293 cells stably expressing Nav1.6 (HEK-Nav1.6) were incubated for 30 min with 0.1% DMSO (control), 20 µM 12, or 20 µM 19. After incubation, the modulatory effects of these peptidomimetics on Nav1.6-mediated currents were assessed using whole-cell patch-clamp electrophysiology (Figure 5 and Table 4).
HEK293 cells were maintained in Dulbecco’s Modified Eagle Medium (DMEM) and F-12 (Invitrogen, Carlsbad, CA, USA), supplemented with 0.05% glucose, 0.5 mM pyruvate, 10% fetal bovine serum, 100 units/mL penicillin, and 100 µg/mL streptomycin (Invitrogen), and incubated at 37 °C with 5% CO2. The double stable HEK293 cell line expressing CD4-Nav1.6C-tail-NLuc and CLuc-FGF14 used for LCA experiments was described in a previous study and was maintained using selective antibiotics (0.5 mg/mL G418 and 5 µg/mL puromycin). HEK293 cells stably expressing the human Nav1.6 channel (hereafter referred to as HEK-Nav1.6 cells) were maintained similarly, except for the addition of 500 μg/mL G418 (Invitrogen) to maintain stable Nav1.6 expression. Cells were transfected at 80–90% confluence with equal amount (1 μg each) of plasmid pairs using Lipofectamine 3000 (Invitrogen, Waltham, MA, USA) according to the manufacturer’s instructions. HEK-Nav1.6 cells were washed and re-plated at very low density prior to electrophysiological recordings.
HEK293 cells stably expressing Nav1.6 (HEK-Nav1.6) were grown in culture as described above. Prior to experimentation, HEK-Nav1.6 cells were dissociated using Gibco TrypLE (Thermo Fisher Scientific, Walthman, MA, USA) and plated at low density onto glass coverslips situated at the base of wells in CELLSTAR® 24-Well Multi-Well Plates (Greiner Bio-One, Monroe, NC, USA). Cells were then incubated on glass cover slips for 2–3 h. After incubation, glass cover slips were transferred to the recording chamber containing 3 mL of extracellular solution comprised of the following salts (mM): 140 NaCl, 3 KCl, 1 MgCl2, 1 CaCl2, 10 HEPES, 10 glucose, pH 7.3. After incubating for thirty minutes in the extracellular solution containing either DMSO or experimental compound, recordings were then performed at room temperature (20–22 °C) using a MultiClamp 700B amplifier (Molecular Devices, Sunnyvale, CA) and borosilicate glass pipettes (resistance of 3–6 MΩ) containing intracellular solution comprised of the following salts (mM): 130 CH3O3SCs, 1 ethylene glycol tetraacetic acid (EGTA), 10 NaCl, 10 HEPES, pH 7.3. Dial settings on the amplifier were used to estimate membrane capacitance and series resistance and compensated for electronically by 70–80%. Prior to digitization and storage, data were acquired at 20 kHz and filtered at 5 kHz. Clampex 9.2 software (Molecular Devices), interfaced to the electrophysiological equipment using a Digidata 1200 analog-digital interface (Molecular Devices), was used to control all experimental parameters. To assess the relationship of INa and voltage, HEK-Nav1.6 cells were evoked by depolarizations to test potentials ranging from –100 to +60 mV from a holding potential of −70 mV, followed by a voltage pre-step pulse of −120 mV. To assess steady-state inactivation of Nav channels, HEK-Nav1.6 cells were evoked using a paired-pulse protocol in which cells were stepped, from the holding potential, to varying test potentials ranging from −120 to +20 mV (pre-pulse) prior to a test pulse to −20 mV.

[3] = biological target: T1, FGF14; assay: Surface plasmon resonance binding to FGF14; conditions: for koff: read-out: koff FGF14; for kon: read-out: kon FGF14
Procedure: The determined kon and koff rate constants provide important information about interaction mechanisms and compound properties, enabling investigation of SARs and the rational modification of compounds. Therefore, we used SPR to assess and compare the binding of peptidomimetics to FGF14 and Nav1.6 C-terminal tail protein. Proteins were purified as previously described [31, 36], immobilized to CM5 sensor chips, and increasing concentrations of compounds (0.195–100 µM) were flown over the chips at 60 µL/min.
The two plasmids (pET28a-FGF14; pET30a-Nav1.6) for protein expression and purification of FGF14 (accession number NP_787125; aa 64–252) and Nav1.6 C-tail (accession number #NP_001171455; aa 1763–1912) have been previously described [36, 45] and were transformed into E. coli BL21 (DE3) pLys (Invitrogen). Cells were grown until OD600 = 0.7, and the recombinant proteins were expressed after induction with 0.1 mM isopropyl thio-β-D-galacto-pyranoside (IPTG) for 24 h at 16 °C. Cells were harvested and lysed by sonication at 4 °C in lysis/binding buffer containing the following components (mM): 10 sodium phosphate (prepared from 0.5 M of Na2HPO4 and NaH2PO4), 25 4-(2-hydroxyethyl)-1-piperazineethanesulfonic acid (HEPES), 150 NaCl, phenyl methyl sulphonyl fluoride (PMSF) 0.1, 3-((3-cholamidopropyl) dimethylammonio)-1-propanesulfonate (CHAPS) 0.1% pH 7.0 (for FGF14), and with glycerol 10% (for Nav1.6 C-tail) pH 7.5. The respective proteins were centrifuged at 40,000× g for 1 h at 4 °C. For purification of FGF14, the supernatant was applied to pre-equilibrated heparin and the proteins were then eluted with NaCl 0.2–2.0 M (sodium phosphate 10 mM, NaCl 0.2–2.0 M, pH 7.0) buffer. For purification of Nav1.6 C-tail, the supernatant was first applied to a cobalt column (Thermo Fisher Scientific) and eluted with imidazole (200 mM). The Nav1.6 C-tail was further purified using a HiTrap Q Sepharose Fast Flow column (GE Healthcare, Pittsburgh, PA, USA) using a buffer containing Tris-HCl 50 mM and eluted with NaCl (10–500 mM) at pH 7.5. Finally, all concentrated proteins were purified on an AKTA^TM fast protein liquid chromatography (FPLC) using a Superdex 200 HiLoad 16 × 60 column and equilibrated in Tris-HCl 50 mM + NaCl 150 mM, pH 7.5 (GE Healthcare Bio-Sciences, Chicago, IL, USA). Protein concentrations were determined using UV absorbance with a Thermo NANODROP.
SPR experiments were performed on a Biacore T100 instrument (GE Healthcare, Chicago, IL, USA). Proteins were immobilized on CM5 sensor chips using 10 mM sodium acetate buffer (pH 5.5) with the Amine Coupling Kit (GE Healthcare), as per the manufacturer’s instructions, to a final RU value of 17,896 for FGF14 and 6,800 for Nav1.6 C-tail. No protein was coupled to the control flow channels of the chip (Lanes 1 and 3). The interaction of experimental compounds against FGF14 and Nav1.6 proteins were studied at 25 °C using a flow rate of 60 µL/min. Compounds were serially diluted (0.195–200 µM) in PBS supplemented with Tween-20 0.005% and 2% DMSO. Each sample was injected over the chip for 120 s followed by a dissociation period of 150 s, and finally, chip surface regeneration (600 mM NaCl, 5% DMSO) for 120 s. Each compound was tested over at least two independent experiments with concentrations of 0.195, 0.39, 0.78, 1.56, 3.12, 6.25, 12.5, 25, 50, 100, and 200 µM, including 12.5 and 25 µM, and blanks (buffer alone) in duplicate. A DMSO calibration was performed for each experiment (1.5–2.8% (v/v) DMSO) to correct for bulk refractive index shifts [48].

[4] = tested on: HEK293 cells (Clone V cells); conditions: positive control with known toxicity; cited from earlier work
[5] = biological target: T3, Nav1.6 channel; design: method as in PMID 30587448; conditions: previously reported, cited from earlier work
[6] = biological target: T2, fibroblast growth factor 14 (FGF14), aa 64–252; assay: SPR; Biacore T100; FGF14 (17,896 RU) or Nav1.6 C-tail (6,800 RU) amine-coupled to CM5 chips; compounds 0.195–200 µM flowed at 60 µL/min, 25 °C, PBS with 0.005% Tween-20 and 2% DMSO; KD is the average of the 1:1 Langmuir kinetic fit and the steady-state fit
[7] = biological target: T2, fibroblast growth factor 14 (FGF14), aa 64–252; assay: as above; remark: listed apart in the source

T3 sequence (Q9UQD0 whole entry): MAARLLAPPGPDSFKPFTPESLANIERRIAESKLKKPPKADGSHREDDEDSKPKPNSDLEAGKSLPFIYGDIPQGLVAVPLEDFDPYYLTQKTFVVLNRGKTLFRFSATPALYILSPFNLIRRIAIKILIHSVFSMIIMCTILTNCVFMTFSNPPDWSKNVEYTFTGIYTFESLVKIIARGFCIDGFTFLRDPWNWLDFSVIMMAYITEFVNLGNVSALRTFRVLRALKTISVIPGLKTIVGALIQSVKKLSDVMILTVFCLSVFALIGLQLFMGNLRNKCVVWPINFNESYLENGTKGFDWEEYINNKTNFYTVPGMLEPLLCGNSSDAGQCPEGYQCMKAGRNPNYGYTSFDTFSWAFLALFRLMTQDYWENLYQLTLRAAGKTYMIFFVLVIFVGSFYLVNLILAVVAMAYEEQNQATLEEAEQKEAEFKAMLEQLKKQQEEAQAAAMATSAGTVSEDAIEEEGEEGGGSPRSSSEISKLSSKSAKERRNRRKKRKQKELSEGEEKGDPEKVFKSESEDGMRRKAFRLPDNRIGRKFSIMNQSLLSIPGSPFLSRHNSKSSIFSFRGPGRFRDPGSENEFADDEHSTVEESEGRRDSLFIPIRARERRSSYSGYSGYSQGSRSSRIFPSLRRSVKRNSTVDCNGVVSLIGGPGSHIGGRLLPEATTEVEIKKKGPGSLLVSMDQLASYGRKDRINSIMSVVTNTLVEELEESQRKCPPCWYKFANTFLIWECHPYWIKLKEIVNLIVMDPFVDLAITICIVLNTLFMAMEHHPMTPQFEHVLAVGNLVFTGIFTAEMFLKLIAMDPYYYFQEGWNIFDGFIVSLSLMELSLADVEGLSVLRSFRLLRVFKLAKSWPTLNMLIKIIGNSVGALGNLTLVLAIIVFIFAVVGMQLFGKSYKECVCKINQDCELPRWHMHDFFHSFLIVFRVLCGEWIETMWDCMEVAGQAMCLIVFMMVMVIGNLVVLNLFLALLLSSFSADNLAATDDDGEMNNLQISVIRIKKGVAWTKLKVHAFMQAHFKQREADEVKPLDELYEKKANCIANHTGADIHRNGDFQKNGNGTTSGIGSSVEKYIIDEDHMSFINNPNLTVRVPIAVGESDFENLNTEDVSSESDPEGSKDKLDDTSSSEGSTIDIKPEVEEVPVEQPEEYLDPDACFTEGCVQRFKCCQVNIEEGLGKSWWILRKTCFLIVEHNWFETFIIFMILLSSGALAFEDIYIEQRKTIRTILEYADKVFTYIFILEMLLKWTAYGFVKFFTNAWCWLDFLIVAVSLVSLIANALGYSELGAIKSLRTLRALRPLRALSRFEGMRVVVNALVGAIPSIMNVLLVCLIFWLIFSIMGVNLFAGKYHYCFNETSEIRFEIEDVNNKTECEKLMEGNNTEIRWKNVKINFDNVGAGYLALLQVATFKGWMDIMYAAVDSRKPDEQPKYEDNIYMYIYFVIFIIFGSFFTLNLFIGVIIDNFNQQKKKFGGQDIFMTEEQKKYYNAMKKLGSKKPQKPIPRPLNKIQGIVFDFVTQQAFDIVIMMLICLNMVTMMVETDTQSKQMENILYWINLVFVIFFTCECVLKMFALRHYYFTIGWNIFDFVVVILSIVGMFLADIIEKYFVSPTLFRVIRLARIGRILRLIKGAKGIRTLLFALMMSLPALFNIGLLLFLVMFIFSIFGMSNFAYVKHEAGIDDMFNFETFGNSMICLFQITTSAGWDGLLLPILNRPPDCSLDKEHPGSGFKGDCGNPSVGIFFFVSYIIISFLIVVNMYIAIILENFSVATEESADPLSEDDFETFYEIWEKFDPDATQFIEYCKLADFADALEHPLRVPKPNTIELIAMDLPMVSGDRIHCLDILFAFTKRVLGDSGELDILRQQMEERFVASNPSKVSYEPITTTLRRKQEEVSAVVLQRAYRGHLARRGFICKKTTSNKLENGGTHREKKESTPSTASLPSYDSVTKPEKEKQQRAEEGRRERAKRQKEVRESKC

Molecule | koff [3] | kon [3] | Kd [6] | koff [6] | kon [6] | further results
COC(=O)[C@H](CCCCNC(=O)OCC1c2ccccc2-c2ccccc21)NC(=O)[C@@H]1CCCN1C(=O)[C@H](CC(C)C)NC(=O)[C@H](Cc1ccccc1)NC(C)=O [ZL181] (Ac-FLPK(Fmoc)-OMe) | – | – | – | – | – | Firing frequencies in MSNs of the NAc [1]: decreased maximal and instantaneous firing frequencies
CC(C)[C@H](NC(=O)[C@H](Cc1ccc(OC(C)(C)C)cc1)NC(=O)[C@H](Cc1ccc(OC(C)(C)C)cc1)NC(=O)OCC1c2ccccc2-c2ccccc21)C(N)=O [Compound 12, (9H-fluoren-9-yl)methyl ((S)-1-(((S)-1-(((S)-1-amino-3-methyl-1-oxobutan-2-yl)amino)-3-(4-(tert-butoxy)phenyl)-1-oxopropan-2-yl)amino)-3-(4-(tert-butoxy)phenyl)-1-oxopropan-2-yl)carbamate] (Fmoc-Tyr(tBu)-Tyr(tBu)-Val-NH2) | 0.0186 s⁻¹ | 6440 M⁻¹ s⁻¹ | – | – | – | Tau of Fast Inactivation ([2]; mean ± SEM): 1.30 ± 0.11 (7) ms; Long Term Inactivation, depolarization cycle 4 (INa/INa,Cycle 1) [2]: 0.70 ± 0.04 (7); Long Term Inactivation, depolarization cycle 3 (INa/INa,Cycle 1) [2]: 0.76 ± 0.03; Long Term Inactivation, depolarization cycle 2 (INa/INa,Cycle 1) [2]: 0.88 ± 0.03; V1/2 of Activation ([2]; mean ± SEM, DMSO –20.04 ± 0.85): –20.40 ± 0.89 (10) mV; V1/2 of Steady-state Inactivation ([2]; mean ± SEM): –57.59 ± 0.56 (6) mV
CC(=O)N[C@@H](CCC(=O)OC(C)(C)C)C(=O)N[C@@H](Cc1ccc(OC(C)(C)C)cc1)C(=O)N[C@@H](Cc1ccc(OC(C)(C)C)cc1)C(=O)N[C@H](C(N)=O)C(C)C [Compound 17, tert-butyl (S)-4-acetamido-5-(((S)-1-(((S)-1-(((S)-1-amino-3-methyl-1-oxobutan-2-yl)amino)-3-(4-(tert-butoxy)phenyl)-1-oxopropan-2-yl)amino)-3-(4-(tert-butoxy)phenyl)-1-oxopropan-2-yl)amino)-5-oxopentanoate] (Ac-E(OtBu)Y(tBu)Y(tBu)V-NH2) | 0.088 s⁻¹ | 6030 M⁻¹ s⁻¹ | – | – | – | –
CC(C)[C@H](NC(=O)[C@H](Cc1ccc(OC(C)(C)C)cc1)NC(=O)[C@H](Cc1ccc(OC(C)(C)C)cc1)NC(=O)[C@H](CCC(=O)OC(C)(C)C)NC(=O)c1ccccc1)C(N)=O [Compound 19, tert-butyl (S)-5-(((S)-1-(((S)-1-(((S)-1-amino-3-methyl-1-oxobutan-2-yl)amino)-3-(4-(tert-butoxy)phenyl)-1-oxopropan-2-yl)amino)-3-(4-(tert-butoxy)phenyl)-1-oxopropan-2-yl)amino)-4-benzamido-5-oxopentanoate] (Bz-E(OtBu)Y(tBu)Y(tBu)V-NH2) | 0.013 s⁻¹ | 2060 M⁻¹ s⁻¹ | – | – | – | Tau of Fast Inactivation ([2]; mean ± SEM): 1.12 ± 0.07 (7) ms; Long Term Inactivation, depolarization cycle 4 (INa/INa,Cycle 1) [2]: 0.73 ± 0.03 (8); Long Term Inactivation, depolarization cycle 3 (INa/INa,Cycle 1) [2]: 0.73 ± 0.02; Long Term Inactivation, depolarization cycle 2 (INa/INa,Cycle 1) [2]: 0.83 ± 0.02; V1/2 of Steady-state Inactivation ([2]; mean ± SEM): –58.53 ± 1.69 (8) mV; Fold increase in binding to FGF14 ([3]; 19 relative to 17 (Ac to benzoyl)): approximately 2 fold
CCCCCCCCCC(=O)N[C@@H](CCC(=O)OC(C)(C)C)C(=O)N[C@@H](Cc1ccc(OC(C)(C)C)cc1)C(=O)N[C@@H](Cc1ccc(OC(C)(C)C)cc1)C(=O)N[C@H](C(N)=O)C(C)C [Compound 22, tert-Butyl (S)-5-(((S)-1-(((S)-1-(((S)-1-amino-3-methyl-1-oxobutan-2-yl)amino)-3-(4-(tert-butoxy)phenyl)-1-oxopropan-2-yl)amino)-3-(4-(tert-butoxy)phenyl)-1-oxopropan-2-yl)amino)-4-decanamido-5-oxopentanoate] (Decanoyl-E(OtBu)Y(tBu)Y(tBu)V-NH2) | 0.109 s⁻¹ | 690 M⁻¹ s⁻¹ | – | – | – | –
CC/C(=C(\c1ccccc1)c1ccc(OCCN(C)C)cc1)c1ccccc1 [Tamoxifen] | – | – | – | – | – | Toxicity toward HEK293 cells [4]: toxic
CC(C)C[C@H](NC(=O)[C@H](Cc1ccccc1)NC(=O)OCc1ccccc1)C(=O)N1CCC[C@H]1C(=O)N[C@@H](CCCCNC(=O)OC(C)(C)C)C(N)=O [ZL0177] (Cbz-FLPK(Boc)-NH2) | – | – | – | – | – | Nav1.6-mediated peak current density [5]: –26.65 ± 6.3 pA/pF; Voltage-dependence of Nav1.6 channel activation ([5]; whole-cell patch-clamp): depolarizing shift in voltage-dependence of Nav1.6 channel activation
Bz-[Glu(OtBu)][Tyr(OtBu)][Tyr(OtBu)]V-NH2 (SMILES CC(C)[C@H](NC(=O)[C@H](Cc1ccc(OC(C)(C)C)cc1)NC(=O)[C@H](Cc1ccc(OC(C)(C)C)cc1)NC(=O)[C@H](CCC(=O)OC(C)(C)C)NC(=O)c1ccccc1)C(N)=O) [compound 19 (PW0204)] | – | – | 6.49 µM | 0.013 s⁻¹ | 2060 M⁻¹ s⁻¹ | Kd [7]: 6.3 µM
Decanoyl-[Glu(OtBu)][Tyr(OtBu)][Tyr(OtBu)]V-NH2 (SMILES CCCCCCCCCC(=O)N[C@@H](CCC(=O)OC(C)(C)C)C(=O)N[C@@H](Cc1ccc(OC(C)(C)C)cc1)C(=O)N[C@@H](Cc1ccc(OC(C)(C)C)cc1)C(=O)N[C@H](C(N)=O)C(C)C) [compound 22 (PW0207)] | – | – | > 100 µM | 0.109 s⁻¹ | 690 M⁻¹ s⁻¹ | –
Ac-[Glu(OtBu)][Tyr(OtBu)][Tyr(OtBu)]V-NH2 (SMILES CC(=O)N[C@@H](CCC(=O)OC(C)(C)C)C(=O)N[C@@H](Cc1ccc(OC(C)(C)C)cc1)C(=O)N[C@@H](Cc1ccc(OC(C)(C)C)cc1)C(=O)N[C@H](C(N)=O)C(C)C) [compound 17 (PW0203)] | – | – | 14.3 µM | 0.088 s⁻¹ | 6030 M⁻¹ s⁻¹ | –

From article PMC7435778, “Bidirectional Modulation of the Voltage-Gated Sodium (Nav1.6) Channel by Rationally Designed Peptidomimetics” (Molecules, 2020)
